Assay results published in ChEMBL document CHEMBL5625197, “The mystery of titan hunter: Rationalized striking of the MAPK pathway via Newly synthesized 6-Indolylpyridone-3-Carbonitrile derivatives” (Eur J Med Chem, 2023).

Legend:
[1] = tested on: RXF 393; assay: cells; format: functional; settings: Homo sapiens, RXF 393, 96 h, time 4 day, read-out: GI
Description: Growth inhibition of human RXF 393 cells at 10 uM incubated for 4 days by MTT assay relative to control

[2] = tested on: HCT-116; assay: cells; format: functional; settings: Homo sapiens, HCT-116, 96 h, time 4 day, read-out: GI
Description: Growth inhibition of human HCT-116 cells at 10 uM incubated for 4 days by MTT assay relative to control

[3] = Selectivity index, ratio of GI50 for cytotoxicity against human HEK293 cells to GI50 for cytotoxicity against human RXF 393 cells
[4] = Cytotoxicity against human MRC5 cells assessed as cell growth inhibition incubated for 4 days by MTT assay
[5] = tested on: HOP-92; assay: cells; format: functional; settings: Homo sapiens, HOP-92, 96 h, time 4 day, read-out: GI
Description: Growth inhibition of human HOP-92 cells at 10 uM incubated for 4 days by MTT assay relative to control

[6] = Selectivity index, ratio of GI50 for cytotoxicity against human MRC5 cells to GI50 for cytotoxicity against human HOP-92 cells
[7] = Selectivity index, ratio of GI50 for cytotoxicity against human PCS-800-011 cells to GI50 for cytotoxicity against human SR cells; format: toxicity, cell-based; settings: PCS-800-011 cells versus SR cells, read-out: RatioGI50
[8] = tested on: HCT-116; assay: Cytotoxicity against human HCT-116 cells assessed as cell growth inhibition incubated for 4 days by MTT assay; format: functional; settings: HCT-116, 96 h, time 4 day
[9] = Cytotoxicity against human HEK293 cells assessed as cell growth inhibition incubated for 4 days by MTT assay
[10] = tested on: HOP-92; assay: Cytotoxicity against human HOP-92 cells assessed as cell growth inhibition incubated for 4 days by MTT assay; format: functional; settings: HOP-92, 96 h, time 4 day
[11] = Selectivity index, ratio of GI50 for cytotoxicity against human FHC cells to GI50 for cytotoxicity against human HCT-116 cells; format: toxicity, cell-based; settings: FHC cells versus HCT-116 cells, read-out: RatioGI50
[12] = tested on: SR; assay: cells; format: functional; settings: Homo sapiens, 96 h, time 4 day, read-out: GI
Description: Growth inhibition of human SR cells at 10 uM incubated for 4 days by MTT assay relative to control

[13] = Cytotoxicity against human FHC cells assessed as cell growth inhibition incubated for 4 days by MTT assay
[14] = tested on: SR; assay: Cytotoxicity against human SR cells assessed as cell growth inhibition incubated for 4 days by MTT assay; format: functional; settings: 96 h, time 4 day
[15] = Cytotoxicity against human PCS-800-011 cells assessed as cell growth inhibition incubated for 4 days by MTT assay
[16] = tested on: RXF 393; assay: Cytotoxicity against human RXF 393 cells assessed as cell growth inhibition incubated for 4 days by MTT assay; format: functional; settings: RXF 393, 96 h, time 4 day
[17] = Cytotoxicity against human PCS-800-011 cells assessed as fold change in cell growth inhibition incubated for 4 days by MTT assay; format: toxicity, cell-based; settings: pcs-800-011, 96 h, time 4 day
[18] = biological target: Hepatocyte growth factor receptor (Homo sapiens, UniProt P08581); assay: Inhibition of c-Met (unknown origin)
[19] = tested on: HOP-92; assay: Induction of apoptosis in human HOP-92 cells assessed as fold change in Bax gene expression by RT-PCR analysis; format: functional
[20] = tested on: HOP-92; assay: Induction of apoptosis in human HOP-92 cells assessed as fold change in ratio of Bax/Bcl-2 gene expression by RT-PCR analysis; format: functional
[21] = tested on: HOP-92; assay: Induction of apoptosis in human HOP-92 cells assessed as fold change in PARP1 gene expression by RT-PCR analysis; format: functional
[22] = tested on: HOP-92; assay: Induction of apoptosis in human HOP-92 cells assessed as fold change in p53 gene expression by RT-PCR analysis; format: functional
[23] = tested on: HOP-92; assay: Induction of cell cycle arrest in human HOP-92 cells assessed as accumulation of cells at S phase (reference value: 29.57 %); format: functional
[24] = tested on: HOP-92; assay: Induction of apoptosis in human HOP-92 cells assessed as total apoptotic rate by Annexin V/ PI staining based flow cytometry (reference value: 2.28 %); format: functional
[25] = tested on: HOP-92; assay: Inhibition of cell invasion in human HOP-92 cells incubated for 15 to 20 mins by crystal violet staining based trans-well assay relative to control; format: functional; settings: time 15-20 min
[26] = tested on: HOP-92; assay: Induction of apoptosis in human HOP-92 cells assessed as fold change in Bcl-2 gene expression by RT-PCR analysis; format: functional
[27] = tested on: HOP-92; assay: Induction of apoptosis in human HOP-92 cells assessed as necrosis rate by Annexin V/ PI staining based flow cytometry (reference value: 1.6 %); format: functional
[28] = tested on: HOP-92; assay: Induction of apoptosis in human HOP-92 cells assessed as fold change in caspase-8 gene expression by RT-PCR analysis; format: functional
[29] = tested on: HOP-92; assay: Induction of apoptosis in human HOP-92 cells assessed as fold change in caspase-9 gene expression by RT-PCR analysis; format: functional
[30] = tested on: HOP-92; assay: Induction of cell cycle arrest in human HOP-92 cells assessed as accumulation of cells at G0/G1 phase (reference value: 54.83 %); format: functional
[31] = tested on: HOP-92; assay: Induction of cell cycle arrest in human HOP-92 cells assessed as cell aggregation (reference value: 1.77 %); format: functional
[32] = tested on: HOP-92; assay: Induction of apoptosis in human HOP-92 cells assessed as fold change in caspase-3 gene expression by RT-PCR analysis; format: functional
[33] = tested on: HOP-92; assay: Induction of apoptosis in human HOP-92 cells assessed as late apoptotic rate by Annexin V/ PI staining based flow cytometry (reference value: 0.26 %); format: functional
[34] = tested on: HOP-92; assay: Inhibition of cell migration in human HOP-92 cells incubated for 15 to 20 mins by crystal violet staining based trans-well assay relative to control; format: functional; settings: time 15-20 min
[35] = tested on: HOP-92; assay: Induction of cell cycle arrest in human HOP-92 cells assessed as accumulation of cells at G2/M phase (reference value: 15.6 %); format: functional
[36] = tested on: HOP-92; assay: Inhibition of cell migration in human HOP-92 cells assessed as fold decrease in cell count incubated for 15 to 20 mins by crystal violet staining based trans-well assay; format: functional; settings: time 15-20 min
[37] = tested on: HOP-92; assay: Induction of apoptosis in human HOP-92 cells assessed as early apoptotic rate by Annexin V/ PI staining based flow cytometry (reference value: 0.42 %); format: functional
[38] = tested on: HOP-92; assay: Induction of apoptosis in human HOP-92 cells assessed as fold change in TNFR1 gene expression by RT-PCR analysis; format: functional
[39] = tested on: HOP-92; assay: Induction of cell cycle arrest in human HOP-92 cells assessed as cell debris (reference value: 2.18 %); format: functional
[40] = tested on: HOP-92; assay: Inhibition of colony formation in human HOP-92 cells incubated for 24 hrs by crystal violet staining based assay relative to control; format: functional

N#Cc1c(-c2cccc(Cl)c2Cl)cc(-c2c[nH]c3ccccc23)[nH]c1=O
inhibition of growth at 10 µM [1]: 63.2% | inhibition of growth at 10 µM [2]: 81.7% | RatioGI50 [3]: 3.8 | GI50 at 96 h [4]: 71.3 µM | inhibition of growth at 10 µM [5]: 77.8% | RatioGI50 [6]: 4.62 | selectivity ratio [7]: 3.74 | GI50 [8]: 8.12 µM | GI50 at 96 h [9]: 61 µM | GI50 [10]: 15.4 µM | selectivity ratio [11]: 8.09 | inhibition of growth at 10 µM [12]: 57.6% | GI50 at 96 h [13]: 65.7 µM | GI50 [14]: 22.3 µM | GI50 at 96 h [15]: 83.4 µM | GI50 [16]: 16.1 µM | fold change (FC) [17]: 4

N#Cc1c(-c2ccccc2[N+](=O)[O-])cc(-c2c[nH]c3ccccc23)[nH]c1=O
inhibition of growth at 10 µM [1]: 64.8% | inhibition of growth at 10 µM [2]: 59.5% | inhibition of growth at 10 µM [5]: 68.5% | inhibition of growth at 10 µM [12]: 69%

CCOc1ccn(-c2ccc(F)cc2)c(=O)c1C(=O)Nc1ccc(Oc2ccnc(N)c2Cl)c(F)c1 [BMS-777607]
IC50 [18]: 128 nM

COc1cc(-c2cc(-c3c[nH]c4ccccc34)[nH]c(=O)c2C#N)ccc1O
inhibition of growth at 10 µM [1]: 65% | inhibition of growth at 10 µM [2]: 64.4% | inhibition of growth at 10 µM [5]: 53.5% | inhibition of growth at 10 µM [12]: 52.1%

N#Cc1c(-c2ccccc2Cl)cc(-c2c[nH]c3ccccc23)[nH]c1=O
inhibition of growth at 10 µM [1]: 51.3% | inhibition of growth at 10 µM [2]: 47.6% | inhibition of growth at 10 µM [5]: 55.1% | inhibition of growth at 10 µM [12]: 90%

COc1cccc2c1C(=O)c1c(O)c3c(c(O)c1C2=O)C[C@@](O)(C(=O)CO)C[C@@H]3O[C@H]1C[C@H](N)[C@H](O)[C@H](C)O1 [DOXORUBICIN]
fold change (FC) [19]: 6.62 | fold change (FC) [20]: 21.4 | fold change (FC) [21]: 0.23 | fold change (FC) [22]: 6.97 | Activity [23]: 21.73% | Activity [24]: 52.49% | inhibition (INH) [25]: 41.96% | fold change (FC) [26]: 0.31 | Activity [27]: 9.28% | fold change (FC) [28]: 4.36 | fold change (FC) [29]: 12.4 | Activity [30]: 48.53% | Activity [31]: 2.15% | fold change (FC) [32]: 14.3 | Activity [33]: 26.57% | inhibition (INH) [34]: 73.54% | Activity [35]: 29.74% | fold change (FC) [36]: 3.8 | Activity [37]: 16.64% | fold change (FC) [38]: 0.24 | Activity [39]: 2.44% | inhibition (INH) [40]: 44.9%

CN[C@@H]1C[C@H]2O[C@@](C)([C@@H]1OC)n1c3ccccc3c3c4c(c5c6ccccc6n2c5c31)C(=O)NC4 [STAUROSPORINE]
GI50 [16]: 0.95 µM
